Assay results published in patent US20070167408A1, “NOVEL ALKYL PHOSPHOLIPID DERIVATIVES WITH REDUCED CYTOTOXICITY AND USES THEREOF” (ZENTARIS GmbH, priority 2005, published 2007).
Values after ≈ are worked out from the molar mass of the structure shown.

Assays:
[1] = test system: SKOV-3 (human ovary adenocarcinoma) cells; assay: XTT cytotoxicity assay, SKOV-3 cells; format: cell-based
Summary of the method: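 Exponentially growing SKOV-3 cells recovered 24 h after plating, then received freshly diluted compounds for 2 days of continuous exposure. Viability was read by formazan formation after 3 h with XTT-PMS at 37° C., 5% CO2. IC50 came from inhibition curves.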

[2] = test system: PC3, RKOp21 and SKOV-3 cell lines; assay: XTT cytotoxicity assay, mean over all three cell lines; format: cell-based, human; settings: mean value over all three cell lines
Summary of the method: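 Cells had 2 days of continuous compound exposure, then 3 h with XTT-PMS at 37 °C, 5% CO2 to form formazan from living cells. The value is % inhibition of cell growth, averaged over PC3, RKOp21 and SKOV-3.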

[3] = test system: Streptococcus pneumoniae DSM 11967 (ATCC 49619); assay: Anti-bacterial bouillon microdilution assay (MIC), bacterium B; format: cell-based; settings: Streptococcus pneumoniae DSM 11967, 24 h
Experimental: Selected compounds of the invention were tested in a bouillon microdilution assay method according to the DIN 58940 (www.din.de) guidelines for determination of susceptibility of bacterial strains with regard to cell growth inhibition. The assay method quantifies bacterial cell growth which corresponds to the turbidity of the liquid culture medium by photometric measurement carried out at 595 nm.
The method of MIC determination was performed according to DIN 58940-5. The volumina were adapted according to the microdilution method as described in DIN 58940-7 guideline.
Dependent on water solubility, compounds of the invention were dissolved either in water or ethanol in a concentration of 10 mg/ml. Subsequently, the stock was further diluted in water to a concentration of 512 μg/ml. The following serial dilutions (factor 2) were performed in water resulting in the following […] testing concentrations: 256 μg/ml, 128 μg/ml, 64 μg/ml, 32 μg/ml, 16 μg/ml, 8 μg/ml, 4 μg/ml, 2 μg/ml, 1 μg/ml, 0.5 μg/ml, 0.25 μg/ml and 0.125 μg/ml. Diluted compounds of the invention were transferred in 100 μl volume to the microtiter plate wells.
Pre-cultures of bacteria were grown in appropriate liquid media (refer to ATCC webpage, www.atcc.org) and afterwards were inoculated in corresponding liquid medium. 100 μl of the inoculums [adjusted to an amount of app. 1×10^6 microorganisms per ml (range of 10^5-10^8 microorganisms per ml)] were added to each of the testing compound concentrations and cultivated under the appropriate conditions.
Before and after incubation, bacterial growth was determined by photometric analysis against a positive control containing growing bacteria without compound and a sterile/negative control containing only the medium.

[4] = test system: Moraxella catarrhalis DMS 11994 (ATCC 43617); assay: Anti-bacterial bouillon microdilution assay (MIC), bacterium D; format: cell-based
Summary of the method: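 Broth microdilution MIC per DIN 58940-5/-7. Twofold compound dilutions in water spanned 256 to 0.125 μg/ml in the test concentration series, with inocula of about 1×10^6 organisms/ml in strain-appropriate media. Growth was read as turbidity at 595 nm before and after incubation, against growth and sterile controls.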

[5] = test system: Trypanosoma cruzi (Tulahuan-LACZ amstigotes in PEM); assay: In vitro drug activity assay, protozoon A; format: cell-based; settings: amastigotes in murine peritoneal macrophages, 3 days
Experimental: In vitro activity of selected compounds of the invention against different protozoa was assessed as follows.
Murine (CD1) peritoneal macrophages were harvested 24 hours after starch induction and dispensed into 96-well plates at a concentration of 4×10^5 mL. After 24 hours, the cells were infected with Trypanosoma cruzi Tulahuan LAC-Z amastigotes (grown and cultured according to Buckner et al., Infection and Immunity 1999, 67(1): 403-409). 24 hours later, the infected cells were exposed to the test compounds (compounds of the invention as well as known prior art compounds) for 3 days and 50 μL of 500 μM CPRG-1% Nonidet P-40 was added to each well. The plates were read after 2 to 5 hours at 570 nm (Buckner et al., Antimicrobial Agents and Chemotherapy 1996, 40(11): 2592-2597). ED50 values were calculated with Msxlfit (IDBS).
The following protozoa were assessed: • A) Trypanosoma cruzi (Tulahuan-LACZ amstigotes in PEM, Lorente S O et al., Antimicrobial agents and chemotherapy 2004, 48(8): 2937-2950; Buckner et al., Infection and Immunity 1999, 67(1): 403-409; Buckner et al., Antimicrobial Agents and Chemotherapy 1996, 40(11): 2592-2597) • B) Trypanosoma brucei rhodesiense (strain STIB900, Lorente S O et al., Antimicrobial agents and chemotherapy 2004, 48(8): 2937-2950; Habtemariam S, BMC Pharmacology 2003, 3:6) • C) Plasmodium falciparum (strain K1, Korsinczky M et al., Antimicrobial agents and chemotherapy 2000, 44(8): 2100-2108; Thaitong S and Beale G H, Trans. R. Soc. Trop. Med. Hyg. 1981, 75: 271-273; Trager W and Jensen J B, Science 1976, 193: 673-675) • D) Plasmodium faiciparum (strain 3D7, Mu et al., PLoS Biology 2005, 3(10): e335)

Compound | SKOV-3 % INH [100 μM] ([1]; second set of experiments) [%] | Mean % INH [2] [%] | MIC, bacterium B [3] [µg/mL] | MIC, bacterium D ([4]; 24 h) [µg/mL] | ED50 (μg/mL), protozoon A [5] [µg/mL] | inhibition at 100 µM ([1]; Homo sapiens, SK-OV-3, second set of experiments, read-out: SKOV-3 % INH [100 μM]) [%] | MIC [3] [µg/mL] | MIC ([4]; ATCC43617, 24 h) [µg/mL]
CCCCCCCCCCCCCCCCOP(=O)([O-])OCC[N+]1(C)CCCCC1 [Compound 2, Phosphoric acid hexadecyl ester 2-(1-methyl-piperidin-1-yl)-ethyl ester] | 19.5 | 36.1 | 8 (≈ 17.9 µM) | 4 (≈ 8.94 µM) | 0.50 (≈ 1.12 µM) |  |  | 
CCCCCCCCCCCCCCCCOP(=O)([O-])OCC[N+](C)(C)C [miltefosine, hexadecylphosphocholine, reference compound] |  | 68.7 |  |  | 0.63 (≈ 1.55 µM) | 74.7 | 128 (≈ 314 µM) | 16 (≈ 39.3 µM)
